Results: PubChem BioAssay (NCI)
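The compound was tested at five concentrations on cells cultured in 96-well plates, with a 48-hour exposure period. Abbreviation: GI50, concentration required for 50% inhibition of growth. TGI: concentration producing complete growth inhibition.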

Tests used:
Assay in all cases: NCI anticancer screen, dose series, 48 h
[1] = system: CCRF-CEM leukemia
[2] = system: OVCAR-8 ovarian
[3] = system: SW-620 colon
[4] = system: SNB-19 CNS
[5] = system: MALME-3M melanoma
[6] = system: MDA-MB-435
[7] = system: U251 CNS
[8] = system: RXF 393 renal
[9] = system: PC-3 prostate
[10] = system: NCI-H460 lung
[11] = system: HOP-92 NSCLC
[12] = system: HOP-62 NSCLC
[13] = system: UACC-257 melanoma
[14] = system: DU-145 prostate
[15] = system: IGROV1 ovarian
[16] = system: UACC-62 melanoma
[17] = system: RPMI-8226 leukemia
[18] = system: OVCAR-4 ovarian
[19] = system: COLO 205 colon
[20] = system: NCI-H226 lung
[21] = system: A498 renal
[22] = system: EKVX NSCLC
[23] = system: SF-295 CNS
[24] = system: M14 melanoma
[25] = system: SR leukemia
[26] = system: KM12 colon
[27] = system: SF-268 CNS
[28] = system: SN12C renal
[29] = system: HCT-116 colon
[30] = system: LOX IMVI melanoma

Which results are given for `Cn1c2ccccc2c2nnc(N/N=C/c3ccccn3)nc21`?
GI50 [1]: 0.301 µM; TGI [1]: > 33.1 µM; GI50 [2]: 0.426 µM; TGI [2]: > 84.2 µM; GI50 [3]: 0.509 µM; TGI [3]: > 82.1 µM; GI50 [4]: 0.412 µM; TGI [4]: > 100 µM; GI50 [5]: 0.334 µM; TGI [5]: 2.26 µM; GI50 [6]: 0.459 µM; TGI [6]: > 54.6 µM; GI50 [7]: 0.357 µM; TGI [7]: 14 µM; GI50 [8]: 2.8 µM; TGI [8]: > 42.3 µM; GI50 [9]: 1.44 µM; TGI [9]: > 100 µM; GI50 [10]: 0.346 µM; TGI [10]: 5.69 µM; GI50 [11]: 0.413 µM; TGI [11]: > 59.1 µM; GI50 [12]: 0.337 µM; TGI [12]: 6.02 µM; GI50 [13]: 0.433 µM; GI50 [14]: 0.377 µM; TGI [14]: > 27.3 µM; GI50 [15]: 0.44 µM; TGI [15]: > 23.6 µM; GI50 [16]: 0.3 µM; TGI [16]: 1.03 µM; GI50 [17]: 0.367 µM; TGI [17]: 16.6 µM; GI50 [18]: 0.419 µM; TGI [18]: > 58.9 µM; GI50 [19]: 0.401 µM; TGI [19]: 18.5 µM; GI50 [20]: 0.337 µM; TGI [20]: 5.36 µM; GI50 [21]: 0.396 µM; TGI [21]: 5.05 µM; GI50 [22]: 0.293 µM; TGI [22]: > 32 µM; GI50 [23]: 0.37 µM; TGI [23]: > 23.9 µM; GI50 [24]: 0.285 µM; GI50 [25]: 0.23 µM; TGI [25]: > 100 µM; GI50 [26]: 0.535 µM; TGI [26]: > 38.3 µM; GI50 [27]: 0.343 µM; GI50 [28]: 0.286 µM; GI50 [29]: 0.349 µM; TGI [29]: > 38.4 µM; GI50 [30]: 0.331 µM
